Test system: C-26 colon carcinoma cells
Assay: Cell uptake and metabolism of radiolabelled ceramide assemblies
Format: cell-based, human
Procedure: C-26 colon carcinoma cells were seeded into six-well plates at density of 2.5×10^5 in 2 ml of complete RPMI-1640 medium supplemented with 10% FCS, antibiotics, and glutamine. The cells were allowed to grow for 48 hr and replaced with 1 ml of complete serum containing medium. […] The radioactive doses of ceramides and lipid (dpm/μmole) are described in Table 2C. After these predefined time periods cells were tripsinized and washed twice with PBS. Cell lipids, lipids of the medium and lipids of the wash fraction were extracted by the Bligh and Dyer procedure [E. G. Bligh and W. J. Dyer, Can. J. Biochem. Physiol. 37:[…] (1959)]. Briefly, chloroform, methanol, and DDW were added to the cells at a final ratio of 1:2:1 (by vol.), and incubated for 10 min at 45° C. Then the mixtures were centrifuged at […] for 5 min. The supernatants containing the lipids were taken and chloroform and DDW were added in order to reach the final volume ratio of chloroform: methanol:DDW of 1:1:1. Two phases were formed and well separated after centrifugation. The water/methanol rich upper phase was removed while the chloroform-rich lower phase which contains >99% of the lipids was washed once with synthetic upper phase composed of chloroform:methanol:DDW (6:94:96, by volume). The lipid-containing lower phase was dried under nitrogen stream and redissolved in chloroform: methanol (2:1, by vol.) ready for analysis.
The lipid mixture was applied to silica gel TLC plates and developed in the solvent system of chloroform:methanol: DDW (84:16:1,5, by vol.) and detected by Copper sulfate reagent. The TLC plates were photographed by the Fluor-S-Multyimiger (Bio-Rad, Hercules, Calif.). Migration of lipids from cells extracts, medium, and wash fractions was visualized in comparison to a different well established commercial markers. The retention factor RF (defined as the distance traveled by the compound divided by the distance traveled by the solvent) of various molecules are as follows: SPM-0.04, EPC or HSPC-0.1, DOTAP: 0.24, GalCer: 0.29-0.38, GluCer: 0.4, C6 Cer: 0.68, and C16 Cer: […].
The TLC plates were then subjected overnight to imaging plate and the radioactivity was measured by Bio-Imaging analyzer (FUJI BAS 1000, Japan) then the radioactive bands were scraped from the TLC plate, placed into the test tube containing scintillation medium Opti-Fluor (Packard Bioscience, Groningen, Netherlands) and the radioactivity was counted by a β-counter.
The uptake and metabolism of radiolabelled liposomal or free C6Cer were studied in C-26 colon carcinoma cells. Cells were incubated with either free ^14C6Cer (in ethanol) or with liposomal C6Cer. Total lipids were extracted and the level of uptake and metabolites were determined from cells and growth medium as described in Materials and Methods.

CCCCCCCCCCCCC/C=C/[C@@H](O)[C@H](CO)NC(=O)CCCCC [C6Cer, N-hexanoyl-D-erythro-sphingosine]
Cell uptake (%) of ^14C6Cer (2 hr): 39.9%
Cell uptake (nmole) of ^14C6Cer (2 hr, 20 μM ceramide): 13.7 nmol
Cell uptake (%) of ^14C6Cer (24 hr): 93.7%
Cell uptake (nmole) of ^14C6Cer (24 hr): 34.5 nmol
Cell uptake (%) of ^14C6Cer (72 hr): 72%
Cell uptake (nmole) of ^14C6Cer (72 hr): 24.5 nmol

Reference: patent US20060198882A1, “Stable liposomes or micelles comprising a sphinolipid and a peg-lipopolymer” (priority 2003, published 2006)
